According to US12404241B2 (Celgene Corporation, priority 2018, dated 2025):
Counter-ions that a name gives are not always drawn.

Target: T1, AR (Homo sapiens, UniProt P10275)
T1 construct: endogenous in cells; host or cells: VCaP cells
T1 sequence (P10275 1-920): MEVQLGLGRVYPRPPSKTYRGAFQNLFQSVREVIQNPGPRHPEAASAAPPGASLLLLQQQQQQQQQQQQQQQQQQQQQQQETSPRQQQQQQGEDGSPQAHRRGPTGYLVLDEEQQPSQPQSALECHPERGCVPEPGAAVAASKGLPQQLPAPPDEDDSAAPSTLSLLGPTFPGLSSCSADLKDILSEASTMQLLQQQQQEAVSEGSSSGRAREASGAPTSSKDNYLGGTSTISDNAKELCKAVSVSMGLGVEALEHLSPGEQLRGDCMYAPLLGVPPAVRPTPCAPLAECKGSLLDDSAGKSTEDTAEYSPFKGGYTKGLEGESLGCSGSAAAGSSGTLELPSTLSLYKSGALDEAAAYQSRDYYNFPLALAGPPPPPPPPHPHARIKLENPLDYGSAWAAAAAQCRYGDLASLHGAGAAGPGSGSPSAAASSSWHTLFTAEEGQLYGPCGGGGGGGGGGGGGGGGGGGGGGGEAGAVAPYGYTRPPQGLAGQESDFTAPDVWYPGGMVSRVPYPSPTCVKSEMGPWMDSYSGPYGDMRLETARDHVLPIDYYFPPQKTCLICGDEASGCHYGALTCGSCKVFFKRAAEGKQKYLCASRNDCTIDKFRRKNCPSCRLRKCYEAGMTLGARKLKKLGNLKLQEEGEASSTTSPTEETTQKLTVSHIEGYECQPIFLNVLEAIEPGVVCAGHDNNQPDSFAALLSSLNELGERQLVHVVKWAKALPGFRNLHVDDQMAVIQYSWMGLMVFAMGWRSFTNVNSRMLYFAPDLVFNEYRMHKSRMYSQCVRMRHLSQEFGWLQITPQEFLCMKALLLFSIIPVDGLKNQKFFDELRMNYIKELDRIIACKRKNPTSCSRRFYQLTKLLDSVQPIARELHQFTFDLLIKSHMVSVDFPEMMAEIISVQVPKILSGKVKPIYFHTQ
Experiment: VCAP AR Degradation Assay
Format: cell-based
Settings: for Y (AR degradation efficiency, % of DMSO control): class symbols *; for DC50: class symbols A-C, read-out: DC50
How it was run: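 AR protein in lysates quantified by sandwich ELISA after 24 h exposure of VCaP cells at 37 °C to 10 concentrations (1:3 steps, 5 μM top, final). Four-parameter logistic fit of percent-of-DMSO levels gave DC50 (50% degradation), EC50 and minimal AR level Y.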

Compound | Y (AR degradation efficiency, % of DMSO control) | DC50 [nM]
CCc1cc(N2C(=S)N(c3cnc(C#N)c(C(F)(F)F)c3)C(=O)C2(C)C)ccc1OCCN1C[C@@H]2C[C@H]1CN2CC(=O)Nc1cc(Cl)cc(NC2CCC(=O)NC2=O)c1 (stereo partly drawn) [Example 115, N-(3-chloro-5-(2,6-dioxopiperidin-3-ylamino)phenyl)-2-((1S,4S)-5-(2-(4-(3-(6-cyano-5-(trifluoromethyl)pyridin-3-yl)-5,5-dimethyl-4-oxo-2-thioxoimidazolidin-1-yl)-2-ethylphenoxy)ethyl)-2,5-diazabicyclo[2.2.1]heptan-2-yl)acetamide] | ** (25%<Y<=35%) | 100 to 500
C[C@@H]1CN(CCOc2ccc(N3C(=S)N(c4ccc(C#N)c(C(F)(F)F)c4)C(=O)C3(C)C)cc2Cl)CCN1CC(=O)Nc1cccc(NC2CCC(=O)NC2=O)c1 (stereo partly drawn) [Example 276, 2-((R)-4-(2-(2-chloro-4-(3-(4-cyano-3-(trifluoromethyl)phenyl)-5,5-dimethyl-4-oxo-2-thioxoimidazolidin-1-yl)phenoxy)ethyl)-2-methylpiperazin-1-yl)-N-(3-(2,6-dioxopiperidin-3-ylamino)phenyl)acetamide] | * (0<Y<=25%) | < 100
CCc1cc(N2C(=S)N(c3cnc(C#N)c(C(F)(F)F)c3)C(=O)C23CCC3)ccc1OCCN1CCN(CC(=O)Nc2cc(Cl)cc(NC3CCC(=O)NC3=O)c2)[C@H](C)C1 (stereo partly drawn) [Example 106, N-(3-chloro-5-(2,6-dioxopiperidin-3-ylamino)phenyl)-2-((R)-4-(2-(4-(7-(6-cyano-5-(trifluoromethyl)pyridin-3-yl)-8-oxo-6-thioxo-5,7-diazaspiro[3.4]octan-5-yl)-2-ethylphenoxy)ethyl)-2-methylpiperazin-1-yl)acetamide] | * (0<Y<=25%) | < 100
CCc1cc(N2C(=S)N(c3ccc(C#N)c(C(F)(F)F)c3)C(=O)C2(C)C)ccc1OCCN1C[C@@H](C)N(CC(=O)Nc2cccc(N[C@@H]3CCC(=O)NC3=O)c2)[C@@H](C)C1 [Example 286, 2-((2R,6S)-4-(2-(4-(3-(4-cyano-3-(trifluoromethyl)phenyl)-5,5-dimethyl-4-oxo-2-thioxoimidazolidin-1-yl)-2-ethylphenoxy)ethyl)-2,6-dimethylpiperazin-1-yl)-N-(3-((R)-2,6-dioxopiperidin-3-ylamino)phenyl)acetamide] | * (0<Y<=25%) | < 100
CC1(C)C(=O)N(c2cnc(C#N)c(C(F)(F)F)c2)C(=S)N1c1ccc(OCCN2CCN(CC(=O)Nc3cc(Cl)cc(NC4CCC(=O)NC4=O)c3)CC2)c(CCF)c1 (stereo not shown) [Example 72, N-(3-chloro-5-(2,6-dioxopiperidin-3-ylamino)phenyl)-2-(4-(2-(4-(3-(6-cyano-5-(trifluoromethyl)pyridin-3-yl)-5,5-dimethyl-4-oxo-2-thioxoimidazolidin-1-yl)-2-(2-fluoroethyl)phenoxy)ethyl)piperazin-1-yl)acetamide] | * (0<Y<=25%) | < 100
CC1(C)C(=O)N(c2cnc(C#N)c(C(F)(F)F)c2)C(=S)N1c1ccc(OCCN2CCN(CC(=O)Nc3cccc(NC4CCC(=O)NC4=O)c3)CC2)c(C2CCC2)c1 (stereo not shown) [Example 36, trifluoroacetate] | * (0<Y<=25%) | < 100
CC(C)c1cc(N2C(=S)N(c3cnc(C#N)c(C(F)(F)F)c3)C(=O)C23CCC3)ccc1OCCN1C[C@@H](C)N(CC(=O)Nc2cc(NC3CCC(=O)NC3=O)ccc2F)[C@@H](C)C1 (stereo partly drawn) [Example 209, 2-((2S,6R)-4-(2-(4-(7-(6-cyano-5-(trifluoromethyl)pyridin-3-yl)-8-oxo-6-thioxo-5,7-diazaspiro[3.4]octan-5-yl)-2-isopropylphenoxy)ethyl)-2,6-dimethylpiperazin-1-yl)-N-(5-(2,6-dioxopiperidin-3-ylamino)-2-fluorophenyl)acetamide] | ** (25%<Y<=35%) | 100 to 500
C[C@@H]1CN(CCOc2ccc(N3C(=S)N(c4ccc(C#N)c(C(F)(F)F)c4)C(=O)C3(C)C)cc2C2CCC2)C[C@H](C)N1CC(=O)Nc1cccc(NC2CCC(=O)NC2=O)c1 (stereo partly drawn) [Example 259, 2-((2R,6S)-4-(2-(4-(3-(4-cyano-3-(trifluoromethyl)phenyl)-5,5-dimethyl-4-oxo-2-thioxoimidazolidin-1-yl)-2-cyclobutylphenoxy)ethyl)-2,6-dimethylpiperazin-1-yl)-N-(3-(2,6-dioxopiperidin-3-ylamino)phenyl)acetamide] | * (0<Y<=25%) | < 100
CCc1cc(N2C(=S)N(c3cnc(C#N)c(Cl)c3)C(=O)C2(C)C)ccc1OCCN1CCN(CC(=O)Nc2cccc(NC3CCC(=O)NC3=O)c2)[C@H](C)C1 (stereo partly drawn) [Example 167, 2-((R)-4-(2-(4-(3-(5-chloro-6-cyanopyridin-3-yl)-5,5-dimethyl-4-oxo-2-thioxoimidazolidin-1-yl)-2-ethylphenoxy)ethyl)-2-methylpiperazin-1-yl)-N-(3-(2,6-dioxopiperidin-3-ylamino)phenyl)acetamide] | * (0<Y<=25%) | < 100
CCc1cc(N2C(=S)N(c3ccc(C#N)c(C(F)(F)F)c3)C(=O)C2(C)C)ccc1OCCN1CCN(CC(=O)Nc2cccc(NC3CCC(=O)NC3=O)c2)[C@H](CO)C1 (stereo partly shown) [Example 50] | *** (35%<Y<50%) | 500 to 1000
C[C@@H]1CN(CCOc2ccc(N3C(=S)N(c4ccc(C#N)c(C(F)(F)F)c4)C(=O)C34CCC4)cc2C2CC2)C[C@H](C)N1CC(=O)Nc1cccc(NC2CCC(=O)NC2=O)c1 (stereo partly drawn) [Example 225, 2-((2R,6S)-4-(2-(4-(7-(4-cyano-3-(trifluoromethyl)phenyl)-8-oxo-6-thioxo-5,7-diazaspiro[3.4]octan-5-yl)-2-cyclopropylphenoxy)ethyl)-2,6-dimethylpiperazin-1-yl)-N-(3-(2,6-dioxopiperidin-3-ylamino)phenyl)acetamide] | * (0<Y<=25%) | < 100
CC1(C)C(=O)N(c2ccc(C#N)c(C(F)(F)F)c2)C(=S)N1c1ccc(OCCN2CCN(CC(=O)Nc3cccc(NC4CCC(=O)NC4=O)c3)CC2)c(C2CC2)c1 (stereo not shown) [Example 9, hydrochloride] | * (0<Y<=25%) | < 100
CCc1cc(N2C(=S)N(c3ccc(C#N)c(C(F)(F)F)c3)C(=O)C2(C)C)ccc1OCCN1CCN(CC(=O)Nc2cc(F)cc(NC3CCC(=O)NC3=O)c2)C2(CC2)C1 (stereo not shown) [Example 109, 2-(7-(2-(4-(3-(4-cyano-3-(trifluoromethyl)phenyl)-5,5-dimethyl-4-oxo-2-thioxoimidazolidin-1-yl)-2-ethylphenoxy)ethyl)-4,7-diazaspiro[2.5]octan-4-yl)-N-(3-(2,6-dioxopiperidin-3-ylamino)-5-fluorophenyl)acetamide] | * (0<Y<=25%) | < 100
C[C@@H]1CN(CCOc2ccc(N3C(=S)N(c4cnc(C#N)c(C(F)(F)F)c4)C(=O)C34CCC4)cc2C2CC2)C[C@H](C)N1CC(=O)Nc1cccc(NC2CCC(=O)NC2=O)c1 (stereo partly drawn) [Example 196, 2-((2S,6R)-4-(2-(4-(7-(6-cyano-5-(trifluoromethyl)pyridin-3-yl)-8-oxo-6-thioxo-5,7-diazaspiro[3.4]octan-5-yl)-2-cyclopropylphenoxy)ethyl)-2,6-dimethylpiperazin-1-yl)-N-(3-(2,6-dioxopiperidin-3-ylamino)phenyl)acetamide] | * (0<Y<=25%) | < 100
CCc1cc(N2C(=S)N(c3cnc(C#N)c(C(F)(F)F)c3)C(=O)C2(C)C)ccc1OCCN1CCN(CC(=O)Nc2cc(F)cc(NC3CCC(=O)NC3=O)c2)CC1 (stereo not shown) [Example 63, 2-(4-(2-(4-(3-(6-cyano-5-(trifluoromethyl)pyridin-3-yl)-5,5-dimethyl-4-oxo-2-thioxoimidazolidin-1-yl)-2-ethylphenoxy)ethyl)piperazin-1-yl)-N-(3-(2,6-dioxopiperidin-3-ylamino)-5-fluorophenyl)acetamide] | * (0<Y<=25%) | < 100
CCc1cc(N2C(=S)N(c3ccc(C#N)c(C(F)(F)F)c3)C(=O)C2(C)C)ccc1OCCN1CCN(CC(=O)Nc2cccc(NC3CCC(=O)NC3=O)c2)CC1 (stereo not shown) [Example 10, hydrochloride] | * (0<Y<=25%) | < 100
CC1(C)C(=O)N(c2ccc(C#N)c(C(F)(F)F)c2)C(=S)N1c1ccc(OCCN2CCN(CC(=O)Nc3cccc(NC4CCC(=O)NC4=O)c3)CC2)c(C2CCC2)c1 (stereo not shown) [Example 31, trifluoroacetate] | * (0<Y<=25%) | < 100
